Patent US9522884B2, “Compositions and methods for the treatment of metabolic disorders” (CELLIXBIO PRIVATE LIMITED, priority 2012, dated 2016)

What was measured:
STZ-diabetic rats = assay: Prevention of arterial stiffening in diabetes: STZ-diabetic rats treated 8 weeks via drinking water; format: in vivo, Male Wistar rats; conditions: STZ-diabetic rats (DM), 1 g·L-1 in drinking water, n = 12, mean ± SEM
Protocol: (§1) Diabetes was induced in rats by a single tail vein injection with 55 mg·kg-1 steptozotocin (STZ). After induction of hyperglycaemia, animals were treated for 8 weeks with pyridoxamine (1 g·L-1 in drinking water) and Formula-I (1-2) (1 g·L-1 in drinking water) were compared with the age-matched untreated diabetic controls. Pulse wave reflection along the vasculature was derived using the impulse response function of the filtered aortic input impedance spectra.
(§2) Male Wistar rats at 2 months were randomly divided into six groups (n=12 in each group) as follows: (i) normal controls (NC); (ii) STZ-diabetic rats (DM); (iii) NC treated with PM (NC+PM); (iv) NC treated with Formula-I (1-2) (NC+Formula-I (1-2)); (v) DM treated with PM (DM+PM); and (vi) DM treated with Formula-I (1-2) (DM+Formula-I (1-2)). Diabetes was induced in animals by a single tail vein injection with 55 mg·kg-1 STZ in 0.1 M citrate buffer (pH 4.5). After confirmation of the development of hyperglycaemia (2 days later) by blood glucose determination using a sure step Test Strip, rats were randomly allocated into a vehicle-treated diabetic group, and a treatment group receiving PM in drinking water of 1 g·L-1 and Formula-I (1-2) in drinking water of 1 g·L-1. Animals were studied 8 weeks after exposure to PM to determine its effects on the pulsatile nature of blood flows in the diabetic arteries.
(§3) Effects of Diabetes and Pyridoxamine and Formula-I (1-2) on Blood Glucose Level, Body Weight, Left Ventricular Weight and Aortic Pressure Profile in Male Wistar Rats: […]

[1] = test system: normal controls (NC) rats; assay: Normal control rats treated 8 weeks via drinking water (same study); format: in vivo, Male Wistar rats; conditions: 1 g·L-1 in drinking water, n = 12, mean ± SEM
Protocol: as §1, §2, §3

SMILES | BW (body weight) (STZ-diabetic rats) [g] | Glucose (STZ-diabetic rats) [mg/mL] | LVW (left ventricular weight) (STZ-diabetic rats) [g] | LVW/BW (STZ-diabetic rats) [mg/g] | Pd (diastolic aortic pressure) (STZ-diabetic rats) [mmHg] | Pm (mean aortic pressure) (STZ-diabetic rats) [mmHg] | Ps (systolic aortic pressure) (STZ-diabetic rats) [mmHg] | BW (body weight) [1] [g] | Glucose [1] [mg/mL] | LVW (left ventricular weight) [1] [g] | LVW/BW [1] [mg/g] | Pd (diastolic aortic pressure) [1] [mmHg] | Pm (mean aortic pressure) [1] [mmHg] | Ps (systolic aortic pressure) [1] [mmHg]
Cc1ncc(CO)c(CN)c1O [PM, pyridoxamine] | 296.3 ± 16.4 | 4.305 ± 0.209 | 0.609 ± 0.029 | 2.07 ± 0.04 | 73.2 ± 2.1 | 89.9 ± 2.0 | 103.3 ± 2.0 | 420.0 ± 11.5 | 1.004 ± 0.032 | 0.722 ± 0.023 | 1.72 ± 0.03 | 77.6 ± 3.0 | 92.5 ± 2.7 | 106.0 ± 2.5
CC/C=C\C/C=C\C/C=C\C/C=C\C/C=C\CCCC(=O)OC(C)OC(=O)NCc1c(CO)cnc(C)c1O (stereo not shown) [Formula 1(1-2)] | 299.8 ± 14.9 | 4.128 ± 0.189 | 0.599 ± 0.0349 | 1.989 ± 0.034 | 72.5 ± 1.98 | 88.9 ± 1.96 | 102.7 ± 1.098 | 418.0 ± 13.8 | 1.051 ± 0.014 | 0.789 ± 0.016 | 1.69 ± 0.04 | 76.7 ± 4.10 | 91.4 ± 3.7 | 103.1 ± 2.5
